In US9790207B2, “Pan-genomic inhibitors of NS5A protein encoded by HCV, pharmaceutical compositions, intermediates for inhibitor synthesis, and their synthesis and application methods” (priority 2015, dated 2017):
Counter-ions that a name gives are not always drawn. Like-named read-outs stand apart in the source and are kept apart here.

Legend:
HCV gT1b replicon = experiment: HCV replicon assay, gT1b; type: cell-based, Hepatitis C virus (HCV); details: Hepatitis C virus, GT1B, Huh-7, Huh7 replicon cells, mean value
Experimental: The HCV replicon assay was used to determine the antiviral activity of compounds of general formula 2 (test compounds). The test cell line used in the HCV Replicon Assay was the human hepatoma cell line Huh7 incorporating the HCV replicons synthesized by an outside vendor.
96-well plates were seeded with cells at a density of 7.5×10^3 cells per well in 50 μl of assay media. The compound stock solution was made up freshly in an assay medium (DMEM 1×, Cellgro; cat. #10-013-CV) as a 2× stock. A total of 11 serial 3-fold dilutions of test compounds were prepared from the 2× stock in the assay media ranging from 20 nM-0.2 pM final concentrations. At least 4 hours after seeding the cells, compound treatment was initiated by adding 50 μl of compound dilution to the plates. The final concentrations of compound therefore ranged from 10 nM to 0.1 pM when diluted 1:1 in culture media. The final DMSO concentration was 0.5%. Cells and inhibitors were incubated for 3 days at 37° C./5% CO2. The media was removed from the plates by gentle tapping. The cells were fixed with 100 μl 1:1 acetone:methanol for 1 minute, washed three times with PBS buffer, and then blocked with 150 μl/well 10% Fetal Bovine Serum (FBS) in PBS for 1 hour at room temperature. The cells were then washed three times with PBS buffer and incubated with 100 μl/well anti-hepatitis C core mAb (Affinity BioReagents; cat. # MA1-080, 1 mg/ml stock diluted 1:4,000 in 10% FBS-PBS) for 2 hours at 37° C. Then, the cells were washed three times with PBS and incubated with 100 μl/well HRP-Goat Anti-Mouse antibody (diluted 1:3.500 in 10% FBS-PBS) for 1 hour at 37° C. The cells were then washed three times with PBS and developed with an OPD solution, 100 μl/well (1 OPD tablet+12 ml citrate/phosphate buffer+5 μl 30% H2O2 per plate), for 30 minutes in the dark at room temperature. The reaction was stopped with 2N H2SO4 (100 μl/well), and the absorbance was measured at A490 X on a Victor^3 V 1420 multilabel counter (Perkin Elmer).

[1] = Cytotoxicity, cell viability by ATPLite Kit; type: cell-based, human; details: human, 10% FBS; for inhibition at 96 h: Huh7 cells (human hepatoma cell line), maximal inhibition, read-out: Cytotox gT1b 10% FBS max. inh.
Experimental: The cytotoxicity of the test compounds was studied in parallel using the same cell line, Huh7. Cell viability was determined using the ATPLite Kit (Perkin-Elmer, Boston, USA), according to manufacturer's instructions. 96-well black/transparent bottom plates were seeded with cells at a density of 7.5×10^3 cells per well in 50 μl medium. After 18 hours, compound treatment was initiated by adding 50 μl of compound dilution into the plates. Each compound dilution was tested in triplicates. The cells and inhibitors were then incubated for 96 hours at 37° C./5% CO2. The plates were washed twice with PBS (0.2 ml/well), and then lysed by adding lysis buffer, 0.05 ml/well (all reagents were included with the ATPLite Kit). After rocking for 5 min on a rocking platform, substrate buffer was added (0.05 ml/well). After additional 5-min incubation, the plates were kept in dark for 10 min, and the luminescence was read using TopCount NXT (Packard, Perkin Elmer). CC50 values for all test compounds were determined using XLfit 4.1 software (Table 2).

[2] = 10% FBS, read-out: gT1b 10% FBS, EC50 (pM) mean
[3] = 40% NHS, read-out: gT1b 40% NHS, EC50 (pM) mean

Row | Structure (SMILES) | EC50 (HCV gT1b replicon; [2]) | EC50 (HCV gT1b replicon; [3]) | inhibition at 96 h [1] | CC50 at 96 h ([1]; Huh7 human hepatoma cells, read-out: Cytotox gT1b 10% FBS CC50)
1 | COC(=O)N[C@H](C(=O)N1CCC[C@H]1c1ncc(-c2ccc(C#CC#Cc3cnc([C@@H]4CCCN4C(=O)[C@H](NC(=O)OC)c4ccccc4)[nH]3)c(-c3cccc(-c4ccccc4)c3)c2)[nH]1)C(C)C [2(12)•2HCl, [(S)-1-((S)-2-{5-[6-(4-{2-[(S)-1-((R)-2-Methoxycarbonylamino-2-phenyl-acetyl)-pyrrolidin-2-yl]-3H-imidazol-4-yl}-buta-1,3-diynyl)-[1,1′;3′,1″]terphenyl-3-yl]-1H-imidazol-2-yl}-pyrrolidine-1-carbonyl)-2-methyl-propyl]-carbamic acid methyl ester dihydrochloride] | 1.79 pM | 13.4 pM | 29% | 
2 | COC(=O)N[C@H](C(=O)N1CCC[C@H]1c1ncc(-c2ccc(C#CC#Cc3cnc([C@@H]4CCCN4C(=O)[C@H](NC(=O)OC)c4ccccc4)[nH]3)c(-c3ccc(N4CCN(C)CC4)cc3)c2)[nH]1)C(C)C [2(15)•2HCl, [(S)-1-((S)-2-{5-[4′-(4-Methyl-piperazin-1-yl)-6-(4-{2-[(S)-1-((R)-2-methoxycarbonylamino-2-phenyl-acetyl)-pyrrolidin-2-yl]-3H-imidazol-4-yl}-buta-1,3-diynyl)-biphenyl-3-yl]-1H-imidazol-2-yl}-pyrrolidine-1-carbonyl)-2-methyl-propyl]-carbamic acid methyl ester tetrahydrochloride] | 3.65 pM | 23.9 pM | 82% | 16200 nM
3 | COC(=O)N[C@H](C(=O)N1CCC[C@H]1c1ncc(C#CC#Cc2ccc(-c3cnc([C@@H]4CCCN4C(=O)[C@H](NC(=O)OC)c4ccccc4)[nH]3)cc2-c2ccccc2)[nH]1)C(C)C [2(30)•2HCl, [(S)-1-((S)-2-{5-[4-(5-{2-[(S)-1-((R)-2-Methoxycarbonylamino-2-phenyl-acetyl)-pyrrolidin-2-yl]-3H-imidazol-4-yl}-biphenyl-2-yl)-buta-1,3-diynyl]-1H-imidazol-2-yl}-pyrrolidine-1-carbonyl)-2-methyl-propyl]-carbamic acid methyl ester dihydrochloride] | 2.1 pM | 25.3 pM | 33% | 
4 | COC(=O)N[C@H](C(=O)N1CCC[C@H]1c1ncc(C#CC#Cc2ccc(-c3cnc([C@@H]4CCCN4C(=O)[C@@H](NC(=O)OC)C(C)C)[nH]3)cc2-c2cccc(-c3ccccc3)c2)[nH]1)C(C)C [2(3)•2HCl, [(S)-1-((S)-2-{5-[4-(5-{2-[(S)-1-((S)-2-Methoxycarbonylamino-3-methyl-butyryl)-pyrrolidin-2-yl]-3H-imidazol-4-yl}-[1,1′; 3′,1″]terphenyl-2-yl)-buta-1,3-diynyl]-1H-imidazol-2-yl}-pyrrolidine-1-carbonyl)-2-methyl-propyl]-carbamic acid methyl ester dihydrochloride] | 1.24 pM | 17.1 pM | 29% | 
5 | COC(=O)N[C@H](C(=O)N1CCC[C@H]1c1ncc(-c2ccc(C#CC#Cc3cnc([C@@H]4CCCN4C(=O)[C@H](NC(=O)OC)c4ccccc4)[nH]3)c(Sc3ccccc3)c2)[nH]1)C(C)C [2(20)•2HCl, [(S)-1-((S)-2-{5-[4-(4-{2-[(S)-1-((R)-2-Methoxycarbonylamino-2-phenyl-acetyl)-pyrrolidin-2-yl]-3H-imidazol-4-yl}-buta-1,3-diynyl)-3-phenylsulfanyl-phenyl]-1H-imidazol-2-yl}-pyrrolidine-1-carbonyl)-2-methyl-propyl]-carbamic acid methyl ester dihydrochloride] | 1.7 pM | 9.02 pM | 43% | 
